According to patent publication US5306824A, “Biotinylated isocoumarins” (Georgia Tech Research Corporation, priority 1992, dated 1994):

Legend:
chymotrypsin [1] = target: T1, chymotrypsin (Bos taurus, UniProt P00766); assay: Inactivation of chymotrypsin by biotin-isocoumarins (incubation method); type: biochemical, bovine; settings: 0.1 M Hepes, 0.5 M NaCl, pH 7.5, 5-10% Me2SO, 25° C., two values given for some compounds; for kinact/KI: pH 7.5, inhibitor 20-400 μM, read-out: kobs/[I] Chymotrypsin
Procedure: (§1) Inactivation rates of serine proteases by substituted isocoumarins were measured by the incubation method. An aliquot of inhibitor (25 or 50 μl) in Me2 SO was added to a buffered enzyme solution (0.01-2.3 μM) to initiate the inactivation. Aliquots (50-100 μl) were withdrawn at various intervals and the residual enzymatic activity was measured. Me2 SO concentration in the reaction mixture was 8-12% (v/v). 0.1M Hepes, 0.5M NaCl, pH 7.5 buffer was utilized for the assays of chymotrypsin, cathepsin G (cat G), porcine pancreatic elastase (PPE), human leukocyte elastase (HLE) and rat granule serine proteases. 0.1M Hepes, 0.01M CaCl2, pH 7.5 buffer was utilized for the assays of trypsin and human recombinant (HR) granzyme A. The inhibitor concentrations are shown in the Tables I and II. Peptide nitroanilides with appropriate sequence were used as substrates for various serine proteases. All peptide 4-nitroanilide hydrolysis was measured at 410 nm (ε410 =8800M^-1 cm^-1; Erlanger et al., Arch. Biochem. Biophys. 95, pp 271-278 (1961), incorporated herein by reference). Peptide thioester hydrolysis rates were measured with assay mixtures containing 4,4'-dithiodipyridine (ε324 =19800M^-1 cm^-1; Grasetti & Murray, Arch. Biochem. Biophys. 119, pp. 41-49 (1967), incorporated herein by reference). First order inactivation rate constant (kobs) were obtained from plots of ln (vt /vo) vs time, and the correlation coefficients were greater than 0.98.
(§2) ^a Inhibition was measured in 0.1 M Hepes, 0.5 M NaCl (or 0.01 M
(§3) CaCl2), pH 7.5 buffer, 5-10% Me2 SO and at 25° C.
(§4) SucVal-Pro-NA (0.48 mM) was used as the substrate for chymotrypsin and ca
^b Inhibitor concentrations were 20-400 μM.

chymotrypsin [2] = target: T1, chymotrypsin; assay: Effect of streptavidin and avidin on reactivation of inhibited chymotrypsin; type: biochemical, bovine; settings: monitored for two days; for % of Regained Enzyme Activity, Chymotrypsin, +Streptavidin: 3-4 units streptavidin, 2880 min; for % of Regained Enzyme Activity, Chymotrypsin, Buffer: pH 7.5, 8% Me2SO, 25° C.
Procedure: (§5) ^a Percentage of regained enzymatic activity was measured in 0.1 M
(§6) Hepes, 0.5 M NaCl, pH 7.5 buffer, 8% Me2 SO and at 25° C.
(§7) Excess inhibitor was removed from enzymeinhibitor mixture by
(§8) centrifugation twice with Amicon microconcentrator10. Then 3-4 units of
(§9) avidin or strepavidin was added and enzymatic activity was monitored for […]

trypsin = target: T2, trypsin (Bos taurus, UniProt P00760); assay: Inactivation of trypsin by biotin-isocoumarins (incubation method); type: biochemical; settings: inhibitor 41-42 μM; 0.1 M Hepes, 0.01 M CaCl2, pH 7.5, 25° C.; read-out: kobs/[I] Trypsin
T2 sequence (P00760 24-246): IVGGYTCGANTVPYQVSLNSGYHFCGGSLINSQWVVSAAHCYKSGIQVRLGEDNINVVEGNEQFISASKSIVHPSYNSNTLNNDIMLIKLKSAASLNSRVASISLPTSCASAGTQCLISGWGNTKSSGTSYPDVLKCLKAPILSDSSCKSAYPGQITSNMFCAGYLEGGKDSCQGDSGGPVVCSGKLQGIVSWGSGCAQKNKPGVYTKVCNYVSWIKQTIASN
Procedure: as §1, §2, §3
ZGlu-Phe-Arg-NA (0.032 mM) was a substrate for trypsin. ZArg-SBzl (0.120
^f Inhibitor concentrations were 41-42 μM.

Rat Granule Chymase [3] = assay: Reactivation of inhibited rat granule chymase with NH2OH; type: biochemical; settings: 0.4 M NH2OH, immediately after addition
Procedure: (§10) ^a Inhibition was performed at 0.1 M Hepes, 0.5 M NaCl, pH 7.5 buffer
(§11) 10% Me2 SO and 25° C. Reactivation was carried out in the
presence of 0.4 M of NH2 OH, and occurred immediately after the […]

Rat Granule Chymase [4] = assay: Inhibition of rat granule chymase; type: biochemical; settings: inhibition not time dependent, pH 7.5, 10% Me2SO, 25° C.
Procedure: as §1, with “First order inactivation rate constant (kobs) were obtained from plots of ln (vt /vo) vs time, and the correlation coefficients were greater than 0.98.” left out
(§12) ^a Inhibition was measured in 0.1 M Hepes, 0.5 M NaCl, pH 7.5 buffer, […]

chymotrypsin [5] = target: T1, chymotrypsin; assay: Reactivation of inhibited chymotrypsin in buffer and with NH2OH; type: biochemical, bovine; settings: for % of Enzyme Activity Reactivated, Chymotrypsin +NH2OH: 0.4 M NH2OH, immediately after addition; for % of Enzyme Activity Reactivated, Chymotrypsin in buffer: after removal of excess inhibitor, 25° C. for two days
Procedure: as §10, §11
(§13) presence of 0.4 M of NH2 OH, and occurred immediately after the
(§14) ^b Enzyme activity was measured after removal of excess inhibitor by
(§15) centrifugation at 0° C. with centricon10 microconcentrator and
(§16) staying at 25° C. for two days.

Rat Granule Tryptase = assay: Inhibition of rat granule tryptase; type: biochemical; settings: [I] 0.078 mM or 0.2 mM as per table line; pH 7.5, 10% Me2SO, 25° C.
Procedure: as §1, with “First order inactivation rate constant (kobs) were obtained from plots of ln (vt /vo) vs time, and the correlation coefficients were greater than 0.98.” left out
as §12

[6] = target: T3, human leukocyte elastase (HLE) (Homo sapiens, UniProt P08246); assay: Inactivation of human leukocyte elastase by biotin-isocoumarins (incubation method); type: biochemical; settings: inhibitor 1.6-210 μM; pH 7.5, 25° C.; read-out: kobs/[I] HLE
T3 sequence (P08246 30-267): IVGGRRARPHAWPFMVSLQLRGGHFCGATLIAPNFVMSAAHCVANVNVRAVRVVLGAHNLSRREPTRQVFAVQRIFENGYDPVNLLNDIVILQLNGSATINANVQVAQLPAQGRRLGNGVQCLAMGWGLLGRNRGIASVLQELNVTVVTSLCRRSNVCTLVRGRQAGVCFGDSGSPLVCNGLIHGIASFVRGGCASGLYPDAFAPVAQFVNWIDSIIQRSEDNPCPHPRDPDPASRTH
Procedure: as §1, §2, §3
(§17) G. MeOSuc-Ala-Ala-Pro-Val-NA (0.24-0.47 mM) and SucAla-Ala-Ala-NA
(§18) (0.29-0.48 mM) were used as the substrate for HLE and PPE respectively.
^d Inhibitor concentrations were 1.6-210 μM.

cathepsin G (cat G) = target: T4, cathepsin G (cat G) (Homo sapiens, UniProt P08311); assay: Inactivation of cathepsin G by biotin-isocoumarins (incubation method); type: biochemical; settings: inhibitor 75-400 μM; pH 7.5, 25° C.; NI = no inhibition after 10 min of incubation; read-out: kobs/[I] Cat. G
T4 sequence (P08311 21-255): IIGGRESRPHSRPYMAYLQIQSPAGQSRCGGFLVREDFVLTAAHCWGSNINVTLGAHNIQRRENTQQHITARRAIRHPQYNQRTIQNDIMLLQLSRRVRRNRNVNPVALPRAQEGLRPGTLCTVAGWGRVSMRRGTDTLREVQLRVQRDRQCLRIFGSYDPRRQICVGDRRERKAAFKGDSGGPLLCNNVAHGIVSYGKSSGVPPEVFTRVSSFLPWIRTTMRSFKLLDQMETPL
Procedure: as §1, §2, §3, §4, §17
^c Inhibitor concentrations were 75-400 μM.
(§19) ^h No inhibition after 10 min of incubation of inhibitor and enzyme.
^i Percentage of inhibition after 10 min of incubation of inhibitor

[7] = target: porcine pancreatic elastase (PPE) (Sus scrofa, UniProt P00772); assay: Inactivation of porcine pancreatic elastase by biotin-isocoumarins (incubation method); type: biochemical; settings: inhibitor 38-78 μM; pH 7.5, 25° C.; NI = no inhibition after 10 min of incubation; read-out: kobs/[I] PPE
porcine pancreatic elastase (PPE), sequence (P00772 27-266): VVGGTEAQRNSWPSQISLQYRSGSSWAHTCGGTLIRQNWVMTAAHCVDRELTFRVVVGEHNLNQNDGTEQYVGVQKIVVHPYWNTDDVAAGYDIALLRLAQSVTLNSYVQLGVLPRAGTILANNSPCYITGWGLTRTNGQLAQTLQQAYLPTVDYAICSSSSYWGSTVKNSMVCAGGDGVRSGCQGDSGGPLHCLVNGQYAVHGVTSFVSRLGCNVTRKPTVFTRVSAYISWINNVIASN
Procedure: as §1, §2, §3, §17, §18
^e Inhibitor concentrations were 38-78 μM.
as §19

PPE [8] = target: T5, PPE (Sus scrofa, UniProt P00772); assay: Effect of streptavidin and avidin on reactivation of inhibited PPE; type: biochemical, porcine; settings: monitored for two days
T5 sequence (P00772 27-266): as above
Procedure: as §5, §6, §7, §8, §9

PPE [9] = target: T5, PPE; assay: Reactivation of inhibited PPE in buffer and with NH2OH; type: biochemical, porcine
Procedure: as §10, §11, §13, §14, §15, §16

Structure (SMILES) | kobs/[I] Chymotrypsin (chymotrypsin [1]; inhibitor 20-400 μM) | kinact/KI (chymotrypsin [1]) | % of Regained Enzyme Activity, Chymotrypsin, +Streptavidin (chymotrypsin [2]) | % of Regained Enzyme Activity, Chymotrypsin, Buffer (chymotrypsin [2]) | kinact/KI (trypsin) | % of Enzyme Activity Reactivated, Rat granule chymase +NH2OH (Rat Granule Chymase [3]) | Rat Granule Chymase % of inhibition (Rat Granule Chymase [4]; [I] 0.2 mM) | % of Enzyme Activity Reactivated, Chymotrypsin +NH2OH (chymotrypsin [5]) | % of Enzyme Activity Reactivated, Chymotrypsin in buffer (chymotrypsin [5]) | Rat Granule Tryptase kobs/[I] (Rat Granule Tryptase) | kinact/KI [6] | kinact/KI (cathepsin G (cat G)) | kinact/KI [7] | % of Regained Enzyme Activity, PPE, +Avidin (PPE [8]; 3-4 units avidin, 2880 min) | % of Regained Enzyme Activity, PPE, +Streptavidin (PPE [8]; 3-4 units streptavidin, 2880 min) | % of Regained Enzyme Activity, PPE, Buffer (PPE [8]; pH 7.5, 8% Me2SO, 25° C.) | % of Enzyme Activity Reactivated, PPE +NH2OH (PPE [9]; 0.4 M NH2OH, immediately after addition) | % of Enzyme Activity Reactivated, PPE in buffer (PPE [9]; after removal of excess inhibitor, 25° C. for two days, 2880 min) | Rat Granule Chymase % of inhibition (Rat Granule Chymase [4]; [I] 0.078 mM)
O=C(CCCC[C@@H]1SC[C@@H]2NC(=O)N[C@@H]21)Nc1ccc2c(Cl)c(OCCc3ccccc3)oc(=O)c2c1 [Compound 1, 7-biotinylamino-4-chloro-3-(2-phenylethoxy)isocoumarin] | 165 M⁻¹ s⁻¹ | 330 M⁻¹ s⁻¹ | 27% | 10% | 1.1 M⁻¹ s⁻¹ | 100% | 10-20% | 100% | 15% | 2 to 3 M⁻¹ s⁻¹ | 740 M⁻¹ s⁻¹ |  |  |  |  |  |  |  | 
CCCOc1oc(=O)c2cc(NC(=O)CCCC[C@@H]3SC[C@@H]4NC(=O)N[C@@H]43)ccc2c1Cl [Compound 2, 7-biotinylamino-4-chloro-3-propoxyisocoumarin] |  | 65 M⁻¹ s⁻¹ |  |  | 2.2 M⁻¹ s⁻¹ |  |  |  |  |  | 19900 M⁻¹ s⁻¹ | 6.7 M⁻¹ s⁻¹ | 470 M⁻¹ s⁻¹ | 32% | 51% | 35% | 98% | 35% | 
O=C(CCCC[C@@H]1SC[C@@H]2NC(=O)N[C@@H]21)NCCCCCC(=O)Nc1ccc2c(Cl)c(OCCc3ccccc3)oc(=O)c2c1 [Compound 3, 7-(6-biotinylaminocaproyl)amino-4-chloro-3-(2-phenylethoxy)isocoumarin] |  |  | 39% | 15% | 1 M⁻¹ s⁻¹ | 30-50% |  | 100% | 10% | 6 to 12 M⁻¹ s⁻¹ | 670 M⁻¹ s⁻¹ |  |  |  |  |  |  |  | 30-50%
